Patent US7678913B2, “Ureas as factor Xa inhibitors” (Portola Pharmaceuticals, Inc., priority 2004, dated 2010)

Each molecule was assayed against T1, human plasma protein factor Xa (Homo sapiens, UniProt P00742) (assay: Factor Xa IC50 determination (cleavage of chromogenic substrate S-2765)). Conditions: fXa 1 nM, S-2765 100 μM, Tris buffered saline pH 7.4, room temperature.
T1 construct: measure proteolytic activity of the enzyme (factor Xa); purchased Haematologic Technologies (Essex Junction, Vt.); host or cells: human plasma
Format: biochemical
Summary of the method: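 Human plasma factor Xa (1 nM) preincubated 5 min at room temperature with inhibitor (0.01 nM–10 μM final) in Tris-buffered saline pH 7.4 with CaCl2, BSA and 5% DMSO. S-2765 added at 100 μM; pNA release at 405 nm over 2 min; initial velocities fitted to four-parameter equation for IC50, duplicates.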

T1 sequence (P00742 235-488 limits assumed): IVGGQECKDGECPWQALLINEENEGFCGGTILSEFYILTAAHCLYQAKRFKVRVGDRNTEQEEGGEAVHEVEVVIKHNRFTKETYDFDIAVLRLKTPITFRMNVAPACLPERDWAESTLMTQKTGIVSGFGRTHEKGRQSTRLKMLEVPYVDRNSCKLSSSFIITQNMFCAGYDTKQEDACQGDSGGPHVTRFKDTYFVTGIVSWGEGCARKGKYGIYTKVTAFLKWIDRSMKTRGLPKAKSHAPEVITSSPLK
T1 sequence (P00742 41-179 partner limits assumed): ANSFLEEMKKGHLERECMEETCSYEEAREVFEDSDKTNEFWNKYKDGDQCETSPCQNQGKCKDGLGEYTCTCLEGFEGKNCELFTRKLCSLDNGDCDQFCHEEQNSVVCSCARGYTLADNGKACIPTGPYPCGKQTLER

| Structure (SMILES) | IC50 [nM] |
| --- | --- |
| CN1CCN=C1c1ccc(NC(=O)C(NC(=O)Nc2ccc(Br)cc2)c2ccccc2F)cc1 (centres unmarked) [Example 40, N-[4-(1-methyl-4,5-dihydro-1H-imidazol-2-yl)phenyl]-2-(2-fluorophenyl)-2-(4-bromophenylaminocarbonylamino)-acetamide] | ≤ 100 |
| CC(C)C(NC(=O)Nc1ccc(Cl)cc1)C(=O)Nc1ccc(C2=NCCN2C)cc1 (centres unmarked) [Example 2, N-[4-(1-methyl-4,5-dihydro-1H-imidazol-2-yl)phenyl]-2-isopropyl-2-(4-chlorophenylaminocarbonylamino)-acetamide] | ≤ 100 |
| Cc1ccccc1C(NC(=O)Nc1ccc(Cl)cc1)C(=O)NCC1CCN(c2ccncc2)CC1 (centres unmarked) [Example 93, N-[1-(pyridin-4-yl)piperidin-4-yl]methyl-2-(2-methylphenyl)-2-(4-chlorophenylaminocarbonylamino)-acetamide] | ≤ 100 |
| O=C(Nc1ccc(Cl)cc1)NC(C(=O)Nc1ccc(-c2cc[n+]([O-])cc2)cc1)c1ccccc1Br (centres unmarked) [Example 78, N-[4-(N-oxo-pyridin-4-yl)phenyl]-2-(2-bromophenyl)-2-(4-chlorophenylaminocarbonylamino)-acetamide] | 100 to 500 |
| CCN(C)C(=N)c1ccc(NC(=O)C(NC(=O)Nc2ccc(Cl)cc2)c2cccs2)cc1 (centres unmarked) [Example 20, N-[4-(N-methyl-N-ethylaminoimino)phenyl]-2-(2-thienyl)-2-(4-chlorophenylaminocarbonylamino)-acetamide] | ≤ 100 |

Continued, values first:

| IC50 [nM] | Structure (SMILES) |
| --- | --- |
| ≤ 100 | Cc1ccccc1C(NC(=O)Nc1ccc(Cl)cc1)C(=O)Nc1ccc(C(=O)N2CCSC2)cc1 (centres unmarked) [Example 97, N-[4-(thiazolidin-3-ylcarbonyl)phenyl]-2-(2-methylphenyl)-2-(4-chlorophenylaminocarbonylamino)-acetamide] |
| ≤ 100 | O=C(Nc1ccc(Cl)cc1)NC(C(=O)NCC1CCN(c2ccncc2)CC1)c1ccccc1Cl (centres unmarked) [Example 105, N-[1-(pyridin-4-yl)piperidin-4-yl]methyl-2-(2-chlorophenyl)-2-(4-chlorophenylaminocarbonylamino)-acetamide] |
| ≤ 100 | COc1ccccc1C(NC(=O)Nc1ccc(Cl)cc1)C(=O)N1CCC(N2CCCCC2=O)CC1 (centres unmarked) [Example 150, 4-(2-piperidinon-1-yl)piperidin-1-yl-2-(2-methoxyphenyl)-2-(4-chlorophenylaminocarbonylamino)-acetamide] |
